Test results reported in publication PMC5090035, “A Class 1 Histone Deacetylase with Potential as an Antifungal Target” (mBio, 2016).

Legend:
[1] = target: T1, RpdA (TAP-tagged wild-type RpdA) (Aspergillus nidulans, UniProt G5EB64); experiment: HDAC assay, release of [3H]acetate from prelabeled histones; assay type: biochemical; details: read-out: % inhibition at 50 nM
T1 construct: gene ANIA_04493; full-length, C12 motif present; TAP-tagged, expressed under xylPp in A. nidulans, IgG Sepharose, eluted by TEV cleavage (CBP part kept)
T1 sequence (G5EB64 1-687): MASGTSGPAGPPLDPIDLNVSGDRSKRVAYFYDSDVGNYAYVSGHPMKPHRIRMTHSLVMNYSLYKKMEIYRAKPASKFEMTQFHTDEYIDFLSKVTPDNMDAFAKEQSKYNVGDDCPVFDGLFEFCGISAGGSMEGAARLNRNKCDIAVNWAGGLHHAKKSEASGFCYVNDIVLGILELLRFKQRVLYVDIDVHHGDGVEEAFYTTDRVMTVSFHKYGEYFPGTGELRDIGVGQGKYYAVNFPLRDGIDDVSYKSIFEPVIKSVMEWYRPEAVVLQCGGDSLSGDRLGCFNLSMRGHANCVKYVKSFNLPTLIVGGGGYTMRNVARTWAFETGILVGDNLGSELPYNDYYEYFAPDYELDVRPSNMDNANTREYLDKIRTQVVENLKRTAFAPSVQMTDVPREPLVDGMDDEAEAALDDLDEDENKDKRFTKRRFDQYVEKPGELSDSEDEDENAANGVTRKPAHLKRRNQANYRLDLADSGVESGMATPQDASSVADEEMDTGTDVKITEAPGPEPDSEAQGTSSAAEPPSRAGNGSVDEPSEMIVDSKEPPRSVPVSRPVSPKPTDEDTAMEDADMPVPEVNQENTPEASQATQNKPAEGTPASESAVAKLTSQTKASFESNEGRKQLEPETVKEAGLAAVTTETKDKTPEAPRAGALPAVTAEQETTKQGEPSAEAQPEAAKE

[2] = target: T1, RpdA (TAP-tagged wild-type RpdA); experiment: as above; assay type: biochemical; details: [3H]acetate-prelabeled chicken reticulocyte histones as substrate; 1 h, 25 C; inhibitor at 50 and 500 nM

inhibition at 0.05 µM [1] | % inhibition at 50 and 500 nM [2] | SMILES
70% | – | CC(/C=C/C(=O)NO)=C\[C@@H](C)C(=O)c1ccc(N(C)C)cc1 [trichostatin A]
– | SAHA showed only weak inhibition of RpdA | O=C(CCCCCCC(=O)Nc1ccccc1)NO [vorinostat]
